Experimental findings from BindingDB's records for doi:10.1016/s0960-894x(02)00385-2 (National Institute of Diabetes and Digestive and Kidney …, 2002) are described below.

The target in the experiment is T1, Mycothiol S-conjugate amidase (Mycobacterium tuberculosis (strain ATCC 25618 / H37Rv), UniProt P9WJN1).
T1 sequence (P9WJN1 whole entry): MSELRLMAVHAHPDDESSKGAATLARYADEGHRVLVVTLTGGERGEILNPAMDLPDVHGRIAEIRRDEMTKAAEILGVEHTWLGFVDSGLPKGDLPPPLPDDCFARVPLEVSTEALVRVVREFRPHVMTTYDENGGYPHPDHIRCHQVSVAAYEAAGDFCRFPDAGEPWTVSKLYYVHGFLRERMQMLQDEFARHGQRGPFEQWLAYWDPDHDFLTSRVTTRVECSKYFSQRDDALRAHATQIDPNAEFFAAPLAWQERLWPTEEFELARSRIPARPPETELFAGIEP
The experiment can be described thus: ChEBML_140808. The text has this:
Inhibition of Mycothiol -S-conjugate amidase (MCA) from mycobacterium tuberculosis

Each structure is given as a SMILES string.

Turning to `N=C(N)CCCCNC(=O)C(Cc1cc(Br)c(OCCCN)c(Br)c1)N=O` (configuration not stated) [3-[4-(3-Amino-propoxy)-3,5-dibromo-phenyl]-N-(4-carbamimidoyl-butyl)-2-[(E)-hydroxyimino]-propionamide], the IC50 (usually the point on the concentration scale where inhibition reaches its midpoint) was 2800 nM.
`O=NC(Cc1ccc(O)c(Br)c1)C(=O)NCCSSCCNC(=O)C(Cc1ccc(O)c(Br)c1)N=O` (configuration not stated) [3-(3-bromo-4-hydroxy-phenyl)-N-[2-(2-{3-(3-bromo-4-hydroxy-phenyl)-2-[hydroxyimino]-propionylamino}-ethyldisulfanyl)-ethyl]-2-[hydroxyimino]-propionamide] registered an IC50 of 2800 nM.
